According to ChEMBL document CHEMBL6115018, “MrgX2-Targeting Ligand Screen for Antipseudoallergic Agents by Immobilized His-Tag-Fused Protein Technology” (J Med Chem, 2025):
The source made the active and inactive calls. The rule behind the calls is not given here.

What was measured:
Mus musculus [1] = assay: Anti-pseudoallergic activity in C48/80-induced male C57BL/6 mouse model assessed as reduction in serum histamine release at 1 to 10 mg/kg, preadministered with compound via gavage for 2 hrs followed by C48/80 administration and measured after 1 hrs by UHPLC-ESI-MS/MS analysis; format: functional, organism-based; conditions: dose 1-10 mg/kg, time 3.0 hrs
Mus musculus [2] = assay: Anti-pseudoallergic activity in C48/80-induced male C57BL/6 mouse model assessed as reduction in mast cell degranulation at 1 mg/mL administered via gavage for 2 hrs by Toluidine blue staining based analysis; format: functional, organism-based
LAD2 [3] = assay: Anti-pseudoallergic activity in human LAD2 cells assessed as inhibition of SP-induced TNF-alpha release incubated for 6 hrs by ELISA analysis; format: functional, cell-based; conditions: dose 1-10 µM
LAD2 [4] = assay: Anti-pseudoallergic activity in human LAD2 cells assessed as inhibition of SP-induced beta-aminohexosidase release at 50 uM preincubated for 30 mins followed by SP addition and measured after 30 mins by absorbance based microplate reader analysis relative to control; format: functional; conditions: LAD2, 1 h, time 60 min
LAD2 [5] = assay: Anti-pseudoallergic activity in human LAD2 cells assessed as inhibition of SP-induced beta-aminohexosidase release preincubated for 30 mins followed by SP addition and measured after 30 mins by absorbance based microplate reader analysis; format: functional, cell-based
Mus musculus [6] = assay: Anti-pseudoallergic activity in C48/80-induced male C57BL/6 mouse model assessed as reduction in paw thickness at 0.5 to 1.0 mg/mL administered via gavage for 2 hrs by vernier caliper based analysis; format: functional, organism-based; conditions: dose 0.5-1 mg/ml
[7] = Cytotoxicity against human LAD2 cells assessed as cell viability incubated for 24 hrs by CCK8 assay relative to control; format: toxicity, cell-based; conditions: read-out: Activity
LAD2 [8] = assay: Anti-pseudoallergic activity in human LAD2 cells assessed as inhibition of SP-induced histamine release preincubated for 30 mins followed by SP addition and measured after 30 mins by UHPLC-ESI-MS/MS analysis; format: functional, cell-based; conditions: dose 1-10 µM, time 60.0 min
Mus musculus [9] = assay: Anti-pseudoallergic activity in C48/80-induced male C57BL/6 mouse model assessed as reduction in evans blue extravasation at 1.0 mg/mL administered via gavage for 2 hrs by absorbance based assay; format: functional, organism-based
LAD2 [10] = assay: Anti-pseudoallergic activity in human LAD2 cells assessed as inhibition of C48/80-induced beta-aminohexosidase release preincubated for 30 mins followed by SP addition and measured after 30 mins by absorbance based microplate reader analysis; format: functional, cell-based
[11] = biological target: T1, Mas-related G-protein coupled receptor member X2 (Homo sapiens) (UniProt Q96LB1); assay: Competitive binding affinity to MrgX2 (unknown origin) assessed as retention time of compound at 4 x 10^-8mol/L by zonal elution method (reference value: 58.73 min); conditions: dose 4.0 10^-8mol/L
T1 sequence (whole entry): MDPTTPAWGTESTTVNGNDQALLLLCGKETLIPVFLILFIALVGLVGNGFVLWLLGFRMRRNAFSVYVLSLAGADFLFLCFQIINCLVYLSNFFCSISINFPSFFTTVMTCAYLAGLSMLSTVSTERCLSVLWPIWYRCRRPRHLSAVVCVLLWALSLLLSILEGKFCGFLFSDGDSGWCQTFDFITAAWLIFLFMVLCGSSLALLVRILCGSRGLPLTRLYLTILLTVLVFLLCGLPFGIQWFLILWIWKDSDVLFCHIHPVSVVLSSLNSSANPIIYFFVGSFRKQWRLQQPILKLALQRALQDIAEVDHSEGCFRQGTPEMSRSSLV

[12] = biological target: T1, Mas-related G-protein coupled receptor member X2 (Homo sapiens); assay: Competitive binding affinity to MrgX2 (unknown origin) assessed as retention time of compound at 8 x 10^-8mol/L by zonal elution method (reference value: 58.73 min); conditions: dose 8.0 10^-8mol/L
[13] = biological target: T1, Mas-related G-protein coupled receptor member X2 (Homo sapiens); assay: Competitive binding affinity to MrgX2 (unknown origin) assessed as retention time of compound at 2 x 10^-8mol/L by zonal elution method (reference value: 58.73 min); conditions: dose 2.0 10^-8mol/L
[14] = biological target: T1, Mas-related G-protein coupled receptor member X2 (Homo sapiens); assay: Competitive binding affinity to MrgX2 (unknown origin) assessed as retention time of compound at 1 x 10^-7mol/L by zonal elution method (reference value: 58.73 min); conditions: dose 1.0 10^-7mol/L

Row | SMILES | Activity (Mus musculus [1]) | Activity (Mus musculus [2]) | Activity (LAD2 [3]) | inhibition at 50 µM (LAD2 [4]) [%] | IC50 (LAD2 [5]) [µM] | Activity (LAD2 [5]; time 60.0 min) | Activity (Mus musculus [6]) | viability at 24 h [7] [%] | Activity (LAD2 [8]) | Activity (Mus musculus [9]) | IC50 (LAD2 [10]) [µM] | Activity (LAD2 [10]; time 60.0 min) | Retention time [11] [min] | Retention time [12] [min] | Retention time [13] [min] | Retention time [14] [min]
1 | O=C(CSc1nnc(-c2ccccc2)c(-c2ccccc2)n1)Nc1ccc(Cl)cc1Cl | Active | Active | Dose-dependent-effect | 75 | 4.9 | Dose-dependent-effect | Active | > 85 | Dose-dependent-effect | Active | 6.18 | Dose-dependent-effect | – | – | – | –
2 | CN(C)[C@@H]1CCN(c2cc(-c3ccccc3)nc3ccnn23)C1 | – | – | – | – | – | – | – | – | – | – | – | – | 46.3 | 29.2 | 56.1 | 23.7
